Reference: patent publication US20140018242A1, “METHOD OF CROP ENHANCEMENT” (SYNGENTA PARTICIPATIONS AG, priority 2010, published 2014)

What follows are compounds tested on Soybeans (Glycine max) (assay: Seed application on soybeans in pouch, plant growth effects (shoot length, root system)). Settings: AI concentration 4 ppm, 14 days, additional growth vs blank formulation check.
Assay type: in vivo
Procedure: The formulated test compounds were added to a defined amount of water. This solution was applied into a pouch which was previously equipped with a filter paper. After the application soybean seeds were sown into the upper fault of the filter paper. The prepared pouches were then incubated for 14 days at 25° C. and a relative humidity of 65% with a photo period of 16 h. The evaluation was made by assessing the shoot length and the root system. Data represent the average of 10 replicates (1seed/plant per pouch).

SMILES	Mean shoot height increase (%)	Mean shoot height increase in cm
CON1CCC2(CC1)C(O)=C(c1c(C)cc(C)cc1C)C(=O)N2C [Compound P2.2, 4-hydroxy-8-methoxy-1-methyl-3-(2,4,6-trimethyl-phenyl)-1,8-diaza-spiro[4.5]dec-3-en-2-one]	7.2%	1.4 cm

Same assay, conditions: AI concentration 5 ppm, 14 days, additional growth vs blank formulation check

SMILES	Mean shoot height increase (%)	Mean shoot height increase in cm
CCOC(=O)OC1=C(c2c(C)cc(C)cc2C)C(=O)N(C)C12CCN(OC)CC2 [Compound P1.2, Carbonic acid ethyl ester 8-methoxy-1-methyl-2-oxo-3-(2,4,6-trimethyl-phenyl)-1,8-diaza-spiro[4.5]dec-3-en-4-yl ester]	8.5%	1.7 cm
CCOC(=O)OC1=C(c2c(C)cc(Br)cc2C)C(=O)N(C)C12CCN(OC)CC2 [Compound P1.12]	16.0%	3.8 cm
CCOC(=O)OC1=C(c2c(C)ccc(C)c2C)C(=O)N(C)C12CCN(OC)CC2 [Compound P1.21]	24.5%	5.8 cm
CCOC(=O)OC1=C(c2c(C)cc(C)cc2C)C(=O)N(OCC)C12CCN(OC)CC2 [Compound P1ii.15]	38.9%	3.8 cm
CCOC(=O)OC1=C(c2cc(C)c(C)cc2C)C(=O)N(OCOC)C12CCN(OC)CC2 [Compound P1ii.56]	7.2%	1.7 cm
CCOC(=O)OC1=C(c2cc(C)c(C)cc2C)C(=O)N(OC)C12CCN(OC)CC2 [Compound P1ii.57]	10.2%	2.4 cm
C=CCOC(=O)OC1=C(c2c(C)cc(C)cc2C)C(=O)N(C)C12CCN(OC)CC2 [T1.070, wherein G is COOCH2CH═CH2]	10.2%	2.1 cm
CCOC(=O)OC1=C(c2c(C)cc(Br)cc2CC)C(=O)N(C)C12CCN(OC)CC2 [T1.078, wherein G is COOCH2CH3]	8.1%	1.7 cm
CCOC(=O)OC1=C(c2c(C)cc(Cl)cc2OC)C(=O)N(C)C12CCN(OC)CC2 [T1.096, wherein G is COOCH2CH3]	6.6%	1.4 cm
CCOC(=O)OC1=C(c2c(C)cc(Cl)cc2C)C(=O)NC12CCN(OC)CC2 [T1iii.067, wherein G is COOCH2CH3]	15.5%	3.9 cm
CCOC(=O)OC1=C(c2c(C)cc(C)cc2CC)C(=O)NC12CCN(OC)CC2 [T1iii.071, wherein G is COOCH2CH3]	8.6%	1.8 cm
CCOC(=O)OC1=C(c2c(C)cc(C)cc2OC)C(=O)NC12CCN(OC)CC2 [T1iii.072, wherein G is COOCH2CH3]	8.9%	2.1 cm
CCOC(=O)OC1=C(c2c(C)cc(Cl)cc2OC)C(=O)NC12CCN(OC)CC2 [T1iii.096, wherein G is COOCH2CH3]	18.4%	3.8 cm
CCOC(=O)OC1=C(c2c(C)cc(C)cc2OC)C(=O)N(OCC)C12CCN(OC)CC2 [T3ii.072, wherein G is COOCH2CH3]	10.6%	2.2 cm
CCOC(=O)OC1=C(c2c(C)cc(Br)cc2CC)C(=O)N(OC2CCCO2)C12CCN(OC)CC2 (centres unmarked) [T25N.078, wherein G is COOCH2CH3]	14.5%	3.0 cm
